Laboratory results from PubChem BioAssay AID2401 (Southern Research Specialized Biocontainment Screening …, 2010).
“And” between values parts separate entries of the source, which are not always exact repeats. Equal entries are not always repeated.

Test system: S. Typhimurium GFP reporter counter-screen, fluorescence, 4 h
Experiment: S. Typhimurium nonspecific reporter signal inhibition – Salmonella Typhimurium, GFP fluorescence, counter-screen for PhoP regulon inhibitor project, dose response (AID 2401);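 note: S. typhimurium with Mg-insensitive nmpC-GFP reporter grown at 10 µM Mg2+; drop in reporter fluorescence reflects general culture growth inhibition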

| SMILES | IC50 |
| --- | --- |
| CCn1cc(C(=O)O)c(=O)c2cc(F)c(N3CCN(C(=S)NC(=O)c4cccc(F)c4)CC3)cc21 | 69.6 µM |
| O=C1OCC(CO)(CO)N=C1NNc1ccc(Cl)c(Cl)c1 | 109 µM |
| Fc1ccc(CCNCc2ccc(Cl)c(Cl)c2)cc1 | 80.6 µM |
| Oc1cccc(Nc2nc(NCC3CCCO3)c3ccccc3n2)c1 (stereo unspecified) | 99.8 µM |
| O=C(CN1CC(c2ccccc2)CC1=O)N/N=C/c1cc(Br)ccc1O (stereo unspecified) | 139 µM |
| CCCCOc1ccc(Br)cc1CSC(=N)N | 75.5 µM |
| NC1CCN(c2c(F)cc3c(=O)c(C(=O)O)cn(C4CC4)c3c2Cl)C1 (stereo unspecified) | < 0.23 µM |
| CCCCCCCCCCOC(=O)Cn1c(COc2ccccc2)[n+](C)c2ccccc21 | 19.2 µM |
| NC1=NC[C@H](Cc2ccccc2)N1CCCCC1CCCCC1 | 45.9 µM |
| COc1ccc(Nc2cc(C)c3c(O)cccc3n2)cc1 | 47.2 µM |
| C/C(=N\Nc1ncnc2sc(C)c(C)c12)c1ccccn1 | 26.4 µM |
| O=S1(=O)N=C(N/N=C/c2ccccn2)c2ccccc21 | 19.3 µM |
| c1ccc(C2CNCc3c2ccc2ccccc32)cc1 (stereo unspecified) | 138 µM |
| CN(C)CCCNc1cc(C(C)(C)C)nc2c(-c3ccccc3)cnn12 | 53.6 µM |
| Oc1ccc(Cl)cc1Cc1cc(Cl)ccc1O | 38.6 µM |
| CCCc1cnc(NCCNCC(O)COc2ccc(Cl)c(Cl)c2)nc1 (stereo unspecified) | 40.3 µM |
| CCCCCCCCNc1ncnc2ccccc12 | 150 µM |
| CCCCCCCCCCCCCCCC[n+]1cccc(C(=O)N(CC)CC)c1 | 20.1 µM |
| c1ccc(-c2nnc(-c3ccccn3)nc2NC2CCCCC2)cc1 | 78.3 µM |
| CCC(C)(C)c1ccc(OCCCC[n+]2ccc(C)cc2)c(C(C)(C)CC)c1 | 48.4 µM |
| C(=N\Nc1ccccn1)/c1cccnc1 | 21.5 µM |
| Cc1ccccc1Nc1cc(C)c2c(O)cccc2n1 | 41.2 µM |

| SMILES | IC50 |
| --- | --- |
| O=[N+]([O-])c1ccc(Sc2nc3ccccc3o2)c([N+](=O)[O-])c1 | 103 µM |
| O=C(/C=C/c1ccccc1Cl)c1ccccc(=O)c1O | 23.8 µM |
| FC(F)(F)c1ccc2c(c1)N(CCCN1CCN(CCCl)CC1)c1ccccc1S2 | 110 µM |
| CC(=O)NC(c1ccc(Cl)cc1Cl)c1ccc2cccnc2c1O (stereo unspecified) | 48.8 µM |
| Cc1[nH]n(-c2ccccc2)c(=O)c1C(C[N+](=O)[O-])c1ccc(F)cc1 (stereo unspecified) | 78.8 µM |
| Cc1ccc(Nc2nc(NCc3ccco3)c3ccccc3n2)cc1 | 22.2 µM |
| C#CCOCCOCCOCCNc1nc(N2CCN(C(=O)CCCCCCCCCCNC(=O)[C@H](CCCN=C(N)N)n3cc(C[C@@H](C)CC)nn3)CC2)nc(N2CCN(C(=O)CCCCCCCCCCNC(=O)[C@@H]([C@H](C)CC)n3cc(CCCCCN)nn3)CC2)n1 | 74.9 µM |
| CCCCCCCCCCOC(=O)Cn1c(COc2ccccc2OC)[n+](C)c2ccccc21 | 21.4 µM |
| CCN1/C(=C/C=C/c2sc3ccccc3[n+]2CC)Sc2ccccc21 | 32.9 µM |
| CCCCOc1ccc(Cc2cnc(N)nc2N)cc1 | 38.2 µM |
| O=C(N/N=C/c1cc(Cl)ccc1O)c1ccncc1 | 20.6 µM |
| CN1CCN(c2c(F)cc3c(=O)c(C(=O)O)cn4c3c2OCN4C)CC1 | 0.61 µM |
| Cn1cnc([N+](=O)[O-])c1Oc1cccc(O)c1 | 143 µM |
| CCn1cc(C(=O)O)c(=O)c2cc(F)c(N3CCN(C(=S)NC(=O)c4ccccc4C)CC3)cc21 | 27.6 µM |
| Cc1ccc(Nc2cc(C)nn2-c2nc(C)cc(=O)[nH]2)cc1 | 13.1 µM |
| Cc1ccc(C(=O)Sc2cccccc2=O)cc1 | 9.74 µM |
| Oc1c(C(Nc2cccc(C(F)(F)F)c2)c2cccnc2)ccc2cccnc12 (stereo unspecified) | 39.3 µM |
| CCCC(=O)NC(c1ccc(Cl)cc1)c1ccc2cccnc2c1O (stereo unspecified) | 108 µM |
| CC(C)Oc1ccc(Cc2cnc(N)nc2N)cc1 | 34 µM |
| NCC12CC3CC(C1)CC(c1ccc(Br)cc1)(C3)C2 | 40.3 µM |
| Cc1cccc(Nc2cc(C)c3c(O)cccc3n2)c1C | 38.8 µM |
| Nc1cc(Cl)c2nonc2c1[N+](=O)[O-] | 54.1 µM |

| SMILES | IC50 |
| --- | --- |
| O=C1C(=O)c2ccccc2-c2ccccc21 | 10.7 µM |
| CC1COc2c(N3CCN(C)CC3)c(F)cc3c(=O)c(C(=O)O)cn1c23 (stereo unspecified) | 0.8 µM |
| C=CC#CC[N+]1(CC#Cc2ccccc2)CCOCC1 | 34.3 µM |
| Cc1ccc(S(=O)(=O)NC2=NCN(CCOC(=O)c3ccc([N+](=O)[O-])cc3)CN2)cc1 | 145 µM |
| CO[C@@]1(NC(=O)C2SC(=C(C(N)=O)C(=O)O)S2)C(=O)N2C(C(=O)O)=C(CSc3nnnn3C)CS[C@@H]21 (stereo partly specified) | 26.9 µM |
| O=C(Cn1nc(CNc2ccc(Cl)cc2)[n+]2c1CCCCC2)c1ccc(Br)cc1 | 72.1 µM |
| COC1C(OC(=O)c2ccc(C)[nH]2)C(O)C(Oc2ccc3c(O)c(NC(=O)c4ccc(O)c(CC=C(C)C)c4)c(=O)oc3c2Cl)OC1(C)C (stereo unspecified) | 16.5 µM |
| Cc1scc(C(=O)N/N=C/c2ccc([N+](=O)[O-])o2)c1C | 114 µM |
| OC(CNCCc1ccccc1)COc1ccc(OCC(O)CNCCc2ccccc2)cc1 (stereo unspecified) | 63.7 µM |
| CSc1ccc2c(c1)C(N1CCN(C)CC1)Cc1ccccc1S2 (stereo unspecified) | 87.2 µM |
| C=C1c2c(Cl)ccc(O)c2C(O)=C2C(=O)[C@]3(O)C(O)=C(C(N)=O)C(=O)[C@@H](N(C)C)[C@@H]3[C@@H](O)C12 (stereo partly specified) | 1.28 µM |
| CCN(CC)S(=O)(=O)c1cccc(C(=O)N/N=C/c2ccc(O)c(O)c2O)c1 | 98.6 µM |
| C[C@H]1COc2c(N3CCN(C)CC3)c(F)cc3c(=O)c(C(=O)O)cn1c23 | 0.37 µM |
| Fc1ccc(Nc2nc(NCc3ccco3)c3ccccc3n2)cc1 | 28.2 µM |
| O=C(c1ccccc1)c1c2c(cc3sc4ccccc4[n+]13)-c1cccc3cccc-2c13 | 82.2 µM |
| C[C@H]1c2cccc(O)c2C(O)=C2C(=O)C3(O)C(O)=C(C(N)=O)C(=O)[C@@H](N(C)C)[C@@H]3[C@@H](O)[C@@H]21 (stereo partly specified) | 3.63 µM |
| Cc1cc(/C=N/n2c(COc3ccccc3C)nc3ccccc3c2=O)c(O)c([N+](=O)[O-])c1 | 70.4 µM |
| CCC(C)NC(=O)c1cn(CC)c2cc(N3CCN(C)CC3)c(F)cc2c1=O (stereo unspecified) | 70.6 µM |
| C[C@H]1c2cccc(O)c2C(O)=C2C(=O)[C@]3(O)C(O)=C(C(N)=O)C(=O)[C@@H](N(C)C)C3[C@@H](O)C21 (stereo partly specified) | 2.3 µM |
| COc1ccc(CN2C(=O)Cc3c2nc(N)c2c(N)nc(N4CCCCC4)c(C#N)c32)cc1 | 120 µM |
| Cc1ccc(C(c2cc(Cl)c3cccnc3c2O)N2CCN(C)CC2)cc1 (stereo unspecified) | 33.5 µM |
| O=C(N/N=C/c1sc2ccccc2c1O)c1cccc2ccccc12 | 23.6 µM |

| SMILES | IC50 |
| --- | --- |
| O=c1[nH]c2ccccc2n2c(=S)[nH]nc12 | 37.5 µM |
| CO[C@H]1C=CO[C@@]2(C)Oc3c(C)c(O)c4c(O)c(c(C=NN5CCN(C)CC5)c(O)c4c3C2=O)NC(=O)C(C)=CC=C[C@H](C)[C@H](O)[C@@H](C)[C@@H](O)[C@@H](C)[C@H](OC(C)=O)[C@@H]1C | 3.44 µM |
| CCn1cc(C(=O)NCC(C)C)c(=O)c2cc(F)c(N3CCN(C)CC3)cc21 | 67.8 µM |
| CCn1cc(C(=O)NCCCN(C)C)c(=O)c2cc(F)c(N3CCN(C)CC3)cc21 | 86.9 µM |
| CCn1c(N)[n+](CC(=O)Nc2ccc(SC(F)F)cc2)c2ccccc21 | 132 µM |
| Cc1[nH]c2ccccc2c1C(=O)COC(=O)c1ccc([N+](=O)[O-])s1 | 130 µM |
| Cc1conc1NC(c1cccs1)c1ccc2cccnc2c1O (stereo unspecified) | 25.1 µM |
| Cc1ccc(-c2csc(NC(=O)C[n+]3cc(-c4ccc(C)cc4)n4c3CCC4)n2)cc1 | 38.4 µM |
| CCn1nc(C(=O)O)c(=O)c2cc3c(cc21)OCO3 | 49 µM |
| CCOc1ccc(NC(=O)c2ccc(NC(=O)c3cn4c5c(c(N6CCN(C)CC6)c(F)cc5c3=O)OCC4C)cc2)cc1 (stereo unspecified) | 6.51 µM |
| Cc1nn(-c2ccccc2)c(N2CCCC2)c1/C=N/Nc1ccc(S(N)(=O)=O)cc1[N+](=O)[O-] | 88.7 µM |
| O=C(C[n+]1cc(-c2ccc(Cl)cc2)n2c1CCC2)Nc1nc(-c2ccccc2)cs1 | 84 µM |
| COc1c(N2CCN(C(=S)Nc3ccc(F)cc3)C(C)C2)c(F)cc2c(=O)c(C(=O)O)cn(C3CC3)c12 (stereo unspecified) | 15.7 µM |
| COc1cccc(/C=N/Nc2ncc(C(F)(F)F)cc2Cl)c1O | 126 µM |
| CCOC(=O)C1=Nc2ccccc2C1=[N+]=[N-] | 42.6 µM |
| Oc1c(C(c2ccccn2)N2CCOCC2)ccc2cccnc12 (stereo unspecified) | 88.6 µM |
| COc1ccc2[nH]c3c(C)c4ccncc4c(C)c3c2c1 | 20.5 µM |
| CNc1cc(Cl)c2nonc2c1[N+](=O)[O-] | 37.7 µM |
| O=C(N/N=C/c1cc([N+](=O)[O-])ccc1O)c1ccncc1 | 24.2 µM |
| CCCCCCCCCC[n+]1cccc2c3ccccc3ccc21 | 23.4 µM |
| CCCCCOc1ccc(Br)cc1CSC(=N)N | 61.1 µM |
| COC(=O)c1cc(C)nc2c1C(=O)C(=O)C=C2N1CCOCC1 | 118 µM |

| SMILES | IC50 |
| --- | --- |
| C#CCOCCOCCOCCNc1nc(N2CCN(C(=O)CCCCCCCCCCNC(=O)[C@H](CO)n3cc(CCCCCN)nn3)CC2)nc(N2CCN(C(=O)CCCCCCCCCCNC(=O)[C@H](CCCN=C(N)N)n3cc(C[C@@H](C)CC)nn3)CC2)n1 | 86.2 µM |
| COc1ccc(OCc2n(CC(=O)OC3CC(C)CCC3C(C)C)c3ccccc3[n+]2C)cc1 (stereo unspecified) | 39.6 µM |
| O=C1C(SCCO)=C(SCCO)C(=O)c2ccccc21 | 68 µM |
| CN1CCc2c(sc(NC(=O)c3ccc([N+](=O)[O-])o3)c2C(N)=O)C1 | 47.7 µM |
| Cc1ccc(Nc2cc(C)c3c(O)cccc3n2)cc1C | 75.3 µM |
| COc1ccc(CNC[C@@H](CCCCN(C)Cc2ccc(OC)cc2)N2C[C@H](c3ccccc3)N(CCc3ccc(Cl)c(Cl)c3)C(=O)C2=O)cc1 | 45.7 µM |
| CCn1cc(C(=O)O)c(=O)c2cc(F)c(N3CCNCC3)cc21 | 0.88 µM |
| OC(c1cc(-c2ccc(C(F)(F)F)cc2)nc(C(F)(F)F)c1)C1CCCCN1 (stereo unspecified) | 29.5 µM |
| N=C(N)SCc1cn(-c2ccccc2)nc1-c1ccc(Br)cc1 | 20.3 µM |
| Cc1ccc(C(=O)N/N=C/c2cc(Br)ccc2O)cn1 | 55.7 µM |
| Clc1ccc(CNCc2cccs2)cc1Cl | 76.1 µM |
| CCCCCCCOC(=O)C[N+](C)(C)CCOC1CC2CCC1(C)C2(C)C (stereo unspecified) | 20.1 µM |
| Fc1ccccc1CCNCc1ccccc1 | 36.2 µM |
| NC(=NCCCCCCN=C(N)/N=C(\N)Nc1ccc(Cl)cc1)/N=C(\N)Nc1ccc(Cl)cc1 | 5.5 µM and 9.19 µM and 14.6 µM |
| O=C(N/N=C/c1ccc(O)cc1O)/C(=C/c1ccccc1)CCO | 124 µM |
| CCNC(=S)NNC(=O)c1ccccn1 | 36.4 µM |
| Cc1ccc(C(=O)O)cc1N=Cc1cc(Br)cc(Br)c1O | 85.6 µM |
| Cc1ccc(Nc2cc(C)c3ccc(O)cc3n2)cc1C | 146 µM |
